In data set [1] the test system is PEX405 cells. The format is cell-based. To be noted: 3 days, PI positive cells (dead cells).
Method: (§1) Images were acquired using the EnSight multimode plate reader (PerkinElmer) and analysis was done using Columbus analysis software (PerkinElmer). […] Then the total number of cells and the % of dead cells was calculated.
(§2) All HDAC inhibitors were tested at 1.3 and 10 µM for 3 days on GM16513 and PEX405 cells.
For data set [2], the system named is GM16513 cells. The data set is classed as cell-based. The following applies: 3 days, PI positive cells (dead cells).
Method: as §1, §2
Data set [3] deals with GM16513 cells. As to the kind of experiment: Catalase import immunofluorescence, high-content screening (% importing cells). The format is cell-based, human. To be noted: for EC50 / Emax: Homo sapiens, 72 h; for Emax: read-out: Max Efficacy (% Importing cells).
Data set [4] deals with PEX405 cells. The data set is described as above. The data set is classed as cell-based, human. To be noted: PEX405 cells, 3 days.
[5] abbreviates: GM16513 cells, dose response with 6 concentrations, 3 days, read-out: EC50.
[6] abbreviates: GM16513 cells, dose response with 6 concentrations, 3 days.

The structures appear in SMILES notation. Read-outs that look alike come from different tables or passages of the source.

In the case of `CCOC(=O)c1cnc(NC2(c3ccccc3)CC2)nc1` [CG347B], the “% PI+ cells” value turned out to be 1% in the data set with PEX405 cells [1] (1.3 µM), 0% with PEX405 cells [1] (10 µM), 1% in the data set on GM16513 cells [2] (1.3 µM) and 1% in the data set with GM16513 cells [2] (10 µM). Further, the “% Importing cells” value with GM16513 cells [3] (GM16513 cells, 1.3 µM, 3 days) is 25%; with GM16513 cells [3] (GM16513 cells, 10 µM, 3 days), 21%; with PEX405 cells [4] (1.3 µM), 4%; with PEX405 cells [4] (10 µM) it was 5%.
Turning to `C#Cc1cccc(Nc2ncnc3cc(OC)c(OCCCCCCC(=O)NO)cc23)c1` [CUDC-101], the “% PI+ cells” value in the data set on PEX405 cells [1] (1.3 µM) was determined as 1%; with PEX405 cells [1] (10 µM), 44%; in the data set with GM16513 cells [2] (1.3 µM), 2%; with GM16513 cells [2] (10 µM) it was 23%. Besides, the “% Importing cells” value in the data set with GM16513 cells [3] (GM16513 cells, 1.3 µM, 3 days) turned out to be 60%; with GM16513 cells [3] (GM16513 cells, 10 µM, 3 days) it was 90%; in the data set with PEX405 cells [4] (1.3 µM), 23%; in the data set on PEX405 cells [4] (10 µM), 49%. The concentration for a half-maximal effect (EC50) (as a rule, the concentration needed to bring the measured effect to its halfway point) with GM16513 cells [3] (setting [5]) is 700 nM. Also, in the data set on GM16513 cells [3] (setting [6]), the Emax worked out at 100%.
As to `O=C(CCCCCCNC(=O)c1cnc(N(c2ccccc2)c2ccccc2Cl)nc1)NO` [Citarinostat], the “% PI+ cells” value in the data set with PEX405 cells [1] (1.3 µM) is given as 0%; in the data set on PEX405 cells [1] (10 µM), 2%; in the data set with GM16513 cells [2] (1.3 µM), 1%; with GM16513 cells [2] (10 µM) it was 4%. Also, the “% Importing cells” value is listed as 47% with GM16513 cells [3] (GM16513 cells, 1.3 µM, 3 days); 90% with GM16513 cells [3] (GM16513 cells, 10 µM, 3 days); 9% in the data set with PEX405 cells [4] (1.3 µM); 53% in the data set on PEX405 cells [4] (10 µM). The EC50 with GM16513 cells [3] (setting [5]) turned out to be 3200 nM. In addition, the Emax in the data set on GM16513 cells [3] (setting [6]) was 93%.
Take `Nc1ccccc1NC(=O)c1ccc(CCCC(=O)Nc2ccc([C@@H]3C[C@H]3N)cc2)cc1` [Corin]: the “% PI+ cells” value turned out to be 2% in the data set with PEX405 cells [1] (1.3 µM), 66% in the data set with PEX405 cells [1] (10 µM), 5% with GM16513 cells [2] (1.3 µM) and 34% with GM16513 cells [2] (10 µM). The “% Importing cells” value in the data set with GM16513 cells [3] (GM16513 cells, 1.3 µM, 3 days) is reported as 59%; in the data set on GM16513 cells [3] (GM16513 cells, 10 µM, 3 days) it was 44%; in the data set with PEX405 cells [4] (1.3 µM), 17%; with PEX405 cells [4] (10 µM), 11%.
As to `Nc1[nH]c(=O)nc2c1ncn2[C@@H]1O[C@H](CO)[C@@H](O)[C@H]1O` [Crotonoside], the “% PI+ cells” value with PEX405 cells [1] (1.3 µM) is 0%; in the data set with PEX405 cells [1] (10 µM), 1%; in the data set on GM16513 cells [2] (1.3 µM), 1%; with GM16513 cells [2] (10 µM) it was 1%. Moreover, the “% Importing cells” value in the data set with GM16513 cells [3] (GM16513 cells, 1.3 µM, 3 days) was 20%; in the data set with GM16513 cells [3] (GM16513 cells, 10 µM, 3 days), 18%; in the data set on PEX405 cells [4] (1.3 µM), 3%; in the data set on PEX405 cells [4] (10 µM), 3%.
Take `O=C(/C=C/c1ccc(CN(CCO)CCc2c[nH]c3ccccc23)cc1)NO` [Dacinostat]: the “% PI+ cells” value is 45% in the data set with PEX405 cells [1] (1.3 µM), 56% with PEX405 cells [1] (10 µM), 31% in the data set on GM16513 cells [2] (1.3 µM) and 35% in the data set with GM16513 cells [2] (10 µM). In addition, the “% Importing cells” value with GM16513 cells [3] (GM16513 cells, 1.3 µM, 3 days) is on record as 88%; in the data set with GM16513 cells [3] (GM16513 cells, 10 µM, 3 days), 76%; in the data set with PEX405 cells [4] (1.3 µM), 25%; with PEX405 cells [4] (10 µM), 0%.
Turning to `Cn1cc(-c2ccc(S(=O)(=O)n3ccc(/C=C/C(=O)Nc4ccccc4N)c3)cc2)cn1` [Domatinostat], the “% PI+ cells” value is on record as 5% with PEX405 cells [1] (1.3 µM), 8% in the data set with PEX405 cells [1] (10 µM), 6% in the data set with GM16513 cells [2] (1.3 µM) and 7% in the data set on GM16513 cells [2] (10 µM). Besides, the “% Importing cells” value in the data set with GM16513 cells [3] (GM16513 cells, 1.3 µM, 3 days) worked out at 21%; with GM16513 cells [3] (GM16513 cells, 10 µM, 3 days), 33%; in the data set with PEX405 cells [4] (1.3 µM), 4%; with PEX405 cells [4] (10 µM), 7%. The EC50 in the data set with GM16513 cells [3] (setting [5]) amounted to 600 nM. In addition, in the data set on GM16513 cells [3] (setting [6]), the Emax amounted to 33%.
As to `Cc1cc(Cl)ccc1OCCCC(=O)NO` [Droxinostat], the “% PI+ cells” value in the data set with PEX405 cells [1] (1.3 µM) was found to be 0%; in the data set on PEX405 cells [1] (10 µM), 2%; with GM16513 cells [2] (1.3 µM), 1%; with GM16513 cells [2] (10 µM) it was 1%. Also, the “% Importing cells” value is 12% with GM16513 cells [3] (GM16513 cells, 1.3 µM, 3 days); 23% with GM16513 cells [3] (GM16513 cells, 10 µM, 3 days); 3% in the data set on PEX405 cells [4] (1.3 µM); 4% with PEX405 cells [4] (10 µM).
With `Cn1c(CCCCCCC(=O)NO)nc2cc(N(CCCl)CCCl)ccc21` [EDO-S101], the “% PI+ cells” value in the data set on PEX405 cells [1] (1.3 µM) turned out to be 1%; in the data set on PEX405 cells [1] (10 µM), 7%; with GM16513 cells [2] (1.3 µM) it was 2%; with GM16513 cells [2] (10 µM) it was 8%. Further, the “% Importing cells” value in the data set with GM16513 cells [3] (GM16513 cells, 1.3 µM, 3 days) is 35%; with GM16513 cells [3] (GM16513 cells, 10 µM, 3 days), 89%; in the data set with PEX405 cells [4] (1.3 µM), 7%; with PEX405 cells [4] (10 µM) it was 55%. In the data set on GM16513 cells [3], this compound registered an EC50 of 3000 nM. Further, the Emax in the data set on GM16513 cells [3] was determined as 90%.
`Nc1ccccc1NC(=O)c1ccc(CNC(=O)OCc2cccnc2)cc1` [Entinostat]: the “% PI+ cells” value in the data set on PEX405 cells [1] (1.3 µM) stood at 2%; in the data set on PEX405 cells [1] (10 µM), 6%; in the data set with GM16513 cells [2] (1.3 µM), 2%; in the data set on GM16513 cells [2] (10 µM), 7%. Moreover, the “% Importing cells” value in the data set with GM16513 cells [3] (GM16513 cells, 1.3 µM, 3 days) worked out at 45%; with GM16513 cells [3] (GM16513 cells, 10 µM, 3 days), 58%; with PEX405 cells [4] (1.3 µM), 15%; in the data set with PEX405 cells [4] (10 µM), 12%. Moreover, in the data set on GM16513 cells [3] (setting [5]), the concentration giving a half-maximal response (EC50) turned out to be 470 nM. Further, the Emax in the data set on GM16513 cells [3] (setting [6]) is 54%.
On to `Cl.O=C(NO)c1ccc(Cn2cc(-c3ccc(CN4CCCC4)cc3)nn2)cc1` [FNDR-20123], for which the “% PI+ cells” value was 9% in the data set on PEX405 cells [1] (1.3 µM), 61% in the data set with PEX405 cells [1] (10 µM), 11% in the data set with GM16513 cells [2] (1.3 µM) and 40% with GM16513 cells [2] (10 µM). Further, the “% Importing cells” value with GM16513 cells [3] (GM16513 cells, 1.3 µM, 3 days) is recorded as 84%; in the data set on GM16513 cells [3] (GM16513 cells, 10 µM, 3 days) it was 47%; in the data set with PEX405 cells [4] (1.3 µM) it was 7%; in the data set with PEX405 cells [4] (10 µM), 0%.
Take `CC1(C)c2cccc(C(=O)NO)c2CN1c1cnc(C(F)(F)F)cn1` [FT895]: the “% PI+ cells” value with PEX405 cells [1] (1.3 µM) is 0%; with PEX405 cells [1] (10 µM) it was 1%; in the data set on GM16513 cells [2] (1.3 µM), 1%; in the data set on GM16513 cells [2] (10 µM), 7%. For the same compound, the “% Importing cells” value in the data set with GM16513 cells [3] (GM16513 cells, 1.3 µM, 3 days) is on record as 14%; in the data set with GM16513 cells [3] (GM16513 cells, 10 µM, 3 days) it was 4%; in the data set on PEX405 cells [4] (1.3 µM) it was 1%; with PEX405 cells [4] (10 µM), 0%.
As to `COc1ccc(-c2nc(N3CCOCC3)c3sc(CN(C)c4ncc(C(=O)NO)cn4)cc3n2)cn1` [Fimepinostat], the “% PI+ cells” value in the data set with PEX405 cells [1] (1.3 µM) was 43%; in the data set on PEX405 cells [1] (10 µM), 55%; with GM16513 cells [2] (1.3 µM) it was 25%; in the data set with GM16513 cells [2] (10 µM), 29%. Further, the “% Importing cells” value in the data set with GM16513 cells [3] (GM16513 cells, 1.3 µM, 3 days) is 81%; with GM16513 cells [3] (GM16513 cells, 10 µM, 3 days) it was 61%; in the data set on PEX405 cells [4] (1.3 µM), 25%; in the data set with PEX405 cells [4] (10 µM) it was 4%. The EC50 in the data set on GM16513 cells [3] (setting [5]) came out at 10 nM. Also, the Emax with GM16513 cells [3] (setting [6]) amounted to 92.5%.
As to `Oc1cc(O)cc(/C=C/c2c(O)cccc2O)c1` [Gnetol], the “% PI+ cells” value in the data set with PEX405 cells [1] (1.3 µM), in the data set with PEX405 cells [1] (10 µM), with GM16513 cells [2] (1.3 µM) and in the data set with GM16513 cells [2] (10 µM) was 1% in each case. Further, the “% Importing cells” value in the data set on GM16513 cells [3] (GM16513 cells, 1.3 µM, 3 days) worked out at 12%; in the data set with GM16513 cells [3] (GM16513 cells, 10 µM, 3 days) it was 9%; with PEX405 cells [4] (1.3 µM), 2%; in the data set on PEX405 cells [4] (10 µM), 3%.
For the compound `COc1ccc(/C=C/C(=O)NO)c(-c2ccc(-c3ccccc3)cc2)c1` [HDAC8-IN-1], the “% PI+ cells” value came out at 0% with PEX405 cells [1] (1.3 µM), 2% in the data set on PEX405 cells [1] (10 µM), 2% in the data set on GM16513 cells [2] (1.3 µM) and 14% with GM16513 cells [2] (10 µM). For the same compound, the “% Importing cells” value with GM16513 cells [3] (GM16513 cells, 1.3 µM, 3 days) was 10%; with GM16513 cells [3] (GM16513 cells, 10 µM, 3 days), 3%; in the data set on PEX405 cells [4] (1.3 µM), 2%; in the data set with PEX405 cells [4] (10 µM), 0%.

These data come from patent EP4410284A1, “COMPOUND AND METHOD FOR THE TREATMENT OF ZELLWEGER SPECTRUM DISORDER” (Apteeus, priority 2023, dated 2024).
